Laboratory results from PubChem BioAssay (NCI).
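At the GI50, growth is halved. Definition used: TGI = concentration required for complete inhibition of growth.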

What was measured:
Experiment in all cases: NCI anticancer screen, dose series, 384-well format
[1] = system: OVCAR-5 ovarian
[2] = system: NCI-H23 lung
[3] = system: OVCAR-8 ovarian
[4] = system: HCT-116 colon
[5] = system: HT29 colon
[6] = system: TK-10 renal
[7] = system: ACHN renal
[8] = system: SR leukemia
[9] = system: MDA-MB-231 breast
[10] = system: UO-31 renal
[11] = system: LOX IMVI melanoma
[12] = system: BT-549 breast
[13] = system: IGROV1 ovarian
[14] = system: HCT-15 colon
[15] = system: NCI/ADR-RES ovarian
[16] = system: UACC-257 melanoma
[17] = system: MALME-3M melanoma
[18] = system: PC-3 prostate
[19] = system: NCI-H522 lung
[20] = system: UACC-62 melanoma
[21] = system: CCRF-CEM leukemia
[22] = system: SK-MEL-5 melanoma
[23] = system: COLO 205 colon
[24] = system: NCI-H226 lung
[25] = system: SNB-75 CNS
[26] = system: 786-0 renal
[27] = system: KM12 colon
[28] = system: DU-145 prostate
[29] = system: EKVX NSCLC
[30] = system: MDA-MB-435 melanoma
[31] = system: M14 melanoma
[32] = system: HS 578T breast
[33] = system: OVCAR-3 ovarian
[34] = system: A498 renal
[35] = system: SF-268 CNS
[36] = system: SN12C renal
[37] = system: RPMI-8226 leukemia
[38] = system: SK-MEL-2 melanoma
[39] = system: CAKI-1 renal
[40] = system: SW-620 colon
[41] = system: SK-OV-3 ovarian
[42] = system: MDA-MB-468 breast
[43] = system: HOP-62 NSCLC
[44] = system: SF-295 CNS
[45] = system: A549 NSCLC
[46] = system: MCF7 breast
[47] = system: SNB-19 CNS

Work on `COc1cc2c(Nc3cc(Cl)c(OC)c(Cl)c3)c(C#N)cnc2cc1OCCCN1CCN(C)CC1` yielded a GI50 [1] of 1200 nM, a TGI [1] of 2700 nM and a GI50 [2] of 401 nM. The TGI [2] was 1480 nM, the GI50 [3] was 389 nM and the TGI [3] was 1530 nM. It also gave a GI50 [4] of 329 nM, a TGI [4] of 1200 nM and a GI50 [5] of 1630 nM. For the same compound, the TGI [5] was 4360 nM, the GI50 [6] was 381 nM and the TGI [6] was 1620 nM. For the same compound, the GI50 [7] was 257 nM, the TGI [7] was 1500 nM and the GI50 [8] was 195 nM. For the same compound, the TGI [8] was 377 nM, the GI50 [9] was 1360 nM and the TGI [9] was 2920 nM. The GI50 [10] was 605 nM, the TGI [10] was 1850 nM and the GI50 [11] was 1230 nM. The TGI [11] was 2490 nM, the GI50 [12] was 785 nM and the TGI [12] was 2080 nM. It also gave a GI50 [13] of 145 nM, a TGI [13] of 1030 nM and a GI50 [14] of 878 nM. The TGI [14] was 2170 nM, the GI50 [15] was 1830 nM and the TGI [15] was 3640 nM. It also gave a GI50 [16] of 538 nM, a TGI [16] of 1640 nM and a GI50 [17] of 296 nM. For the same compound, the TGI [17] was 1160 nM, the GI50 [18] was 1320 nM and the TGI [18] was 2880 nM. The GI50 [19] was 47.7 nM, the TGI [19] was 234 nM and the GI50 [20] was 1230 nM. The TGI [20] was 2480 nM, the GI50 [21] was 239 nM and the TGI [21] was 486 nM. For the same compound, the GI50 [22] was 464 nM, the TGI [22] was 1550 nM and the GI50 [23] was 765 nM. The TGI [23] was 2050 nM, the GI50 [24] was 1280 nM and the TGI [24] was 2960 nM. For the same compound, the GI50 [25] was 1270 nM, the TGI [25] was 2540 nM and the GI50 [26] was 672 nM. The TGI [26] was 1990 nM, the GI50 [27] was 412 nM and the TGI [27] was 1580 nM. It also gave a GI50 [28] of 843 nM, a TGI [28] of 2290 nM and a GI50 [29] of 404 nM. The TGI [29] was 1740 nM, the GI50 [30] was 256 nM and the TGI [30] was 925 nM. For the same compound, the GI50 [31] was 191 nM, the TGI [31] was 633 nM and the GI50 [32] was 456 nM. It also gave a TGI [32] of 1350 nM, a GI50 [33] of 323 nM and a TGI [33] of 1280 nM. It also gave a GI50 [34] of 257 nM, a TGI [34] of 1400 nM and a GI50 [35] of 604 nM. The TGI [35] was 2060 nM, the GI50 [36] was 321 nM and the TGI [36] was 1430 nM. It also gave a GI50 [37] of 184 nM, a TGI [37] of 366 nM and a GI50 [38] of 456 nM. The TGI [38] was 1350 nM, the GI50 [39] was 180 nM and the TGI [39] was 1340 nM. The GI50 [40] was 1220 nM, the TGI [40] was 2520 nM and the GI50 [41] was 167 nM. It also gave a TGI [41] of 1420 nM, a GI50 [42] of 288 nM and a TGI [42] of 618 nM. The GI50 [43] was 1090 nM, the TGI [43] was 2440 nM and the GI50 [44] was 909 nM. The TGI [44] was 2150 nM, the GI50 [45] was 1100 nM and the TGI [45] was 2370 nM. The GI50 [46] was 451 nM, the TGI [46] was 1860 nM and the GI50 [47] was 1710 nM. It also gave a TGI [47] of 3630 nM.
